Laboratory results as given in patent US12377104B1, “Methods for treating a fatty liver disease” (Madrigal Pharmaceuticals, Inc., priority 2024, dated 2025).

Test system: adults with biopsy-confirmed NASH
Experiment: MAESTRO-NASH: liver enzymes, imaging and biomarkers (MRI-PDFF, CAP, VCTE, MRE, liver and spleen volume, ELF)
Type: in vivo, human
Conditions: 80 mg
[1] = wk 48, baseline ALT ≥30 U per liter
[2] = week 52, baseline ELF score ≥9.8
[3] = week 52, baseline PIIINP ≥9 ng/mL
[4] = week 52, baseline TIMP-I ≥240 ng/ml
[5] = week 52, baseline hyaluronic acid ≥50 ng/ml

For `CC(C)c1cc(Oc2c(Cl)cc(-n3nc(C#N)c(=O)[nH]c3=O)cc2Cl)n[nH]c1=O` [Resmetirom, 2-(3,5-dichloro-4-((5-isopropyl-6-oxo-1,6-dihydropyridazin-3-yl)oxy)phenyl)-3,5-dioxo-2,3,4,5-tetrahydro-1,2,4-triazine-6-carbonitrile], the “Alanine aminotransferase level, difference from placebo” value (wk 48) was −19.7 percentage points, the “Aspartate aminotransferase level, difference from placebo” value (wk 48) was −19.3 percentage points and the “γ-Glutamyltransferase level, difference from placebo” value (wk 48) was −28.3 percentage points. The “Alanine aminotransferase level, least-squares mean percent change from baseline” value [1] was −26.6 ± 3.7%, the “Aspartate aminotransferase level, least-squares mean percent change from baseline” value [1] was −22.1 ± 3.9% and the “γ-Glutamyltransferase level, least-squares mean percent change from baseline” value [1] was −25.0 ± 5.5%. The “MRI-PDFF, difference from placebo” value (wk 52) was −26.7 percentage points, the “MRI-PDFF, least-squares mean percent change from baseline” value (wk 52) was −35.4 ± 2.8% and the “MRE ≥19% increase from BL, no. of patients” value (F1B, responder analysis) was 0. For the same compound, the “MRE ≥19% reduction from BL, % of patients” value (F1B, responder analysis) was “(20.0) %”, the “MRE ≥19% reduction from BL, no. of patients” value (F1B, responder analysis) was 1 and the “VCTE/LSM improving >25%, % of patients” value (F1B, responder analysis) was “(50.0) %”. For the same compound, the “VCTE/LSM improving >25%, no. of patients” value (F1B, responder analysis) was 6, the “VCTE/LSM improving ≥30%, % of patients” value (F1B, responder analysis) was “(41.7) %” and the “VCTE/LSM improving ≥30%, no. of patients” value (F1B, responder analysis) was 5. The “VCTE/LSM worsening ≥25%, % of patients” value (F1B, responder analysis) was “(8.3) %”, the “VCTE/LSM worsening ≥25%, no. of patients” value (F1B, responder analysis) was 1 and the “VCTE/LSM worsening ≥30%, % of patients” value (F1B, responder analysis) was “(8.3) %”. For the same compound, the “VCTE/LSM worsening ≥30%, no. of patients” value (F1B, responder analysis) was 1, the “FibroScan VCTE/LSM, LS mean CFB” value (F1B, week 52) was −3.7 kPa and the “FibroScan VCTE/LSM, LS mean CFB difference from PBO” value (F1B, week 52) was −3.1 kPa. For the same compound, the “MRE, LS mean % CFB” value (F1B, week 52) was −5.7%, the “MRE, LS mean % CFB difference from PBO” value (F1B, week 52) was −13.2% and the “MRE ≥19% increase from BL, no. of patients” value (F2, responder analysis) was 0. The “MRE ≥19% reduction from BL, % of patients” value (F2, responder analysis) was “(35.0) %”, the “MRE ≥19% reduction from BL, no. of patients” value (F2, responder analysis) was 7 and the “VCTE/LSM improving ≥25%, % of patients” value (F2, responder analysis) was “(44.0) %”. The “VCTE/LSM improving ≥25%, no. of patients” value (F2, responder analysis) was 37, the “VCTE/LSM improving ≥30%, % of patients” value (F2, responder analysis) was “(33.3) %” and the “VCTE/LSM improving ≥30%, no. of patients” value (F2, responder analysis) was 28. The “VCTE/LSM worsening ≥25%, % of patients” value (F2, responder analysis) was “(11.9) %”, the “VCTE/LSM worsening ≥25%, no. of patients” value (F2, responder analysis) was 10 and the “VCTE/LSM worsening ≥30%, % of patients” value (F2, responder analysis) was “(8.3) %”. For the same compound, the “VCTE/LSM worsening ≥30%, no. of patients” value (F2, responder analysis) was 7, the “FibroScan VCTE/LSM, LS mean CFB” value (F2, week 52) was −2.3 kPa and the “FibroScan VCTE/LSM, LS mean CFB difference from PBO” value (F2, week 52) was 1.1 kPa. For the same compound, the “MRE, LS mean % CFB” value (F2, week 52) was −1.9%, the “MRE, LS mean % CFB difference from PBO” value (F2, week 52) was 4.0% and the “MRE ≥19% increase from BL, % of patients” value (F3, responder analysis) was “(3.6) %”. The “MRE ≥19% increase from BL, no. of patients” value (F3, responder analysis) was 3, the “MRE ≥19% reduction from BL, % of patients” value (F3, responder analysis) was “(26.2) %” and the “MRE ≥19% reduction from BL, no. of patients” value (F3, responder analysis) was 22. For the same compound, the “VCTE/LSM improving ≥25%, % of patients” value (F3, responder analysis) was “(41.1) %”, the “VCTE/LSM improving ≥25%, no. of patients” value (F3, responder analysis) was 67 and the “VCTE/LSM improving ≥30%, % of patients” value (F3, responder analysis) was “(34.4) %”. For the same compound, the “VCTE/LSM improving ≥30%, no. of patients” value (F3, responder analysis) was 56, the “VCTE/LSM worsening ≥25%, % of patients” value (F3, responder analysis) was “(14.7) %” and the “VCTE/LSM worsening ≥25%, no. of patients” value (F3, responder analysis) was 24. The “VCTE/LSM worsening ≥30%, % of patients” value (F3, responder analysis) was “(12.9) %”, the “VCTE/LSM worsening ≥30%, no. of patients” value (F3, responder analysis) was 21 and the “FibroScan VCTE/LSM, LS mean CFB” value (F3, week 52) was 2.0 kPa. The “FibroScan VCTE/LSM, LS mean CFB difference from PBO” value (F3, week 52) was −0.86 kPa, the “MRE, LS mean % CFB” value (F3, week 52) was −8.9% and the “MRE, LS mean % CFB difference from PBO” value (F3, week 52) was −8.6%. For the same compound, the “Liver volume, LS mean % CFB” value (week 16) was −18.8%, the “Liver volume, LS mean % CFB difference from PBO” value (week 16) was 18.5% and the “MRI-PDFF % fat fraction, LS mean % CFB” value (week 16) was −37.8%. For the same compound, the “MRI-PDFF % fat fraction, LS mean % CFB difference from PBO” value (week 16) was −31.4%, the “Spleen volume, LS mean % CFB” value (week 16) was −2.4% and the “Spleen volume, LS mean % CFB difference from PBO” value (week 16) was −3.9%. The “ALT, LS mean % CFB” value (week 48) was −26.6%, the “ALT, LS mean % CFB difference from PBO” value (week 48) was −19.7% and the “ALT, LS mean CFB” value (week 48) was −20.4 U/L. The “AST, LS mean % CFB” value (week 48) was −22.1%, the “AST, LS mean % CFB difference from PBO” value (week 48) was −19.3% and the “AST, LS mean CFB” value (week 48) was −13.9 U/L. The “GGT, LS mean % CFB” value (week 48) was −25.0%, the “GGT, LS mean % CFB difference from PBO” value (week 48) was −28.3% and the “GGT, LS mean CFB” value (week 48) was −31.3 U/L. The “Adiponectin, LS mean CFB” value (week 52) was 0.86 µg/mL, the “Adiponectin, LS mean CFB difference from PBO” value (week 52) was 0.97 µg/mL and the “CK-18, LS mean CFB” value (week 52) was −278.2 U/L. The “CK-18, LS mean CFB difference from PBO” value (week 52) was −134.3 U/L, the “FibroScan CAP, LS mean CFB” value (week 52) was −39.6 dB/m and the “FibroScan CAP, LS mean CFB difference from PBO” value (week 52) was −25.2 dB/m. For the same compound, the “Liver volume, LS mean % CFB” value (week 52) was −21.6%, the “Liver volume, LS mean % CFB difference from PBO” value (week 52) was −20.5% and the “MRI-PDFF % fat fraction, LS mean % CFB” value (week 52) was −35.4%. For the same compound, the “MRI-PDFF % fat fraction, LS mean % CFB difference from PBO” value (week 52) was −26.7%, the “Spleen volume, LS mean % CFB” value (week 52) was −5.9% and the “Spleen volume, LS mean % CFB difference from PBO” value (week 52) was −9.0%. For the same compound, the Enhanced liver fibrosis score, LS mean CFB [2] was -0.34, the “Enhanced liver fibrosis score, LS mean CFB difference from PBO” value [2] was −0.22 and the “PIIINP, LS mean % CFB” value [3] was −10.7%. For the same compound, the “PIIINP, LS mean % CFB difference from PBO” value [3] was −9.7%, the “PIIINP, LS mean CFB” value [3] was 2.0 ng/mL and the “PIIINP, LS mean CFB difference from PBO” value [3] was -1.4 ng/mL. The “TIMP-I, LS mean % CFB” value [4] was −9.3%, the “TIMP-I, LS mean % CFB difference from PBO” value [4] was −5.7% and the “TIMP-I, LS mean CFB” value [4] was -31.0 ng/mL. For the same compound, the “TIMP-I, LS mean CFB difference from PBO” value [4] was -17.7 ng/mL, the “Hyaluronic acid, LS mean % CFB” value [5] was 17.2% and the “Hyaluronic acid, LS mean % CFB difference from PBO” value [5] was −7.6%. For the same compound, the “Hyaluronic acid, LS mean CFB” value [5] was 1.1 µg/L.
